Laboratory results: article PMC11035696, “Prospective de novo drug design with deep interactome learning” (Nature Communications, 2024)
Where “and” joins values, the source holds several entries; their conditions need not be identical. Equal entries are not always repeated. Entries after “also recorded” stand apart in the source; their conditions may differ.

How the values were obtained:
human PPARγ = target: T1, human PPARγ (Homo sapiens, UniProt P37231); assay: Gal4-hybrid reporter gene assay, PPARγ activation; type: cell-based; details: PPARγ, compounds 1 and 2, Table 4; read-out: pEC50 (converted)
T1 construct: expressed in transfected cells; host or cells: HEK293T
T1 sequence (P37231 238-503 limits assumed): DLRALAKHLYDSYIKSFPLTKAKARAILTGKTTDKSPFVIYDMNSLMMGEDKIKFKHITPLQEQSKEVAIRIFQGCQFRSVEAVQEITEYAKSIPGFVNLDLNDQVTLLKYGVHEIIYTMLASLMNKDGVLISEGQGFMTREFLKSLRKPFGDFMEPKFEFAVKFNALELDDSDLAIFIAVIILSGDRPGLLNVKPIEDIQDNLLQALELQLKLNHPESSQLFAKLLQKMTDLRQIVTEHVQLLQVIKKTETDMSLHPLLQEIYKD
Description: (§1) Compounds 1–3 were characterized in a hybrid reporter gene assay for their agoniztic effect on human nuclear receptors PPARα/γ/δ, RXRα, FXRα, RARα in HEK293T cells. Compound 1 was tested in an isothermal titration calorimetry (ITC) assay to measure direct binding affinity to the ligand-binding domain of PPARγ. ADME properties were measured in standardized assays at Roche.
(§2) PPAR activation was determined in uniform Gal4-hybrid reporter gene assays for the PPARα, PPARγ and PPARδ isoforms in HEK293T cells (German Collection of Microorganisms and Cell Culture GmbH, DSMZ) which were transiently transfected with pFR-Luc (Stratagene, La Jolla, CA, USA; reporter) and pRL-SV40 (Promega, Madison, WI, USA; internal control) and one pFA-CMV-hPPAR-LBD[97] clone, coding for the hinge region and ligand binding domain of the canonical isoform of human PPARα, PPARγ, PPARδ or respectively. Cells were cultured in Dulbecco’s modified Eagle’s medium (DMEM), high glucose supplemented with 10% fetal calf serum (FCS), sodium pyruvate (1 mM), penicillin (100 U ⋅ ml^-1), and streptomycin (100 μg ⋅ ml^-1) at 37 °C and 5% CO2 and seeded in 96-well plates (3 × 10^4 cells per well). After 24 h, medium was changed to Opti-MEM without supplements and cells were transiently transfected using Lipofectamine LTX reagent (Invitrogen) according to the manufacturer’s protocol. Five hours after transfection, cells were incubated with the test compounds in Opti-MEM supplemented with penicillin (100 U ⋅ ml^-1), streptomycin (100 μg ⋅ ml^-1) and 0.1% DMSO for 16 h before luciferase activity was measured using the Dual-Glo Luciferase Assay System (Promega) according to the manufacturer’s protocol on a Tecan Spark luminometer (Tecan Deutschland GmbH, Germany). Firefly luminescence was divided by Renilla luminescence and multiplied by 1000 resulting in relative light units (RLU) to normalize for transfection efficiency and cell growth. Fold activation was obtained by dividing the mean RLU of a test compound by the mean RLU of the untreated control. All samples were tested in at least three biologically independent experiments in duplicates. For dose-response curve fitting and calculation of EC50 values, the equation “[Agonist] versus response (variable slope—four parameters)” was used in GraphPad Prism (version 7.00, GraphPad Software, La Jolla, CA, USA) with fold activation data. The reference agonizts GW7647 (PPARα)[98],[99], pioglitazone (PPARγ)[100],[101] and L165,041 (PPARδ)[102],[103] were used to validate the assays and to monitor assay performance. Nuclear receptor selectivity profiling was performed with corresponding pFA-CMV-hNR-LBD clones and suitable reference agonizts on RARα (pFA-CMV-hRARα-LBD[104], 1 μM tretinoin), LXRα (pFA-CMV-hLXRα-LBD[104], 1 μM TO901317) and RXRα (pFA-CMV-h RXRα-LBD[105], 1 μM Bexarotene).

[1] = target: T2, retinoid X receptor (RXR)α (Homo sapiens, UniProt P19793); assay: Nuclear receptor selectivity profiling, hybrid reporter gene assay, RXRα; type: cell-based
T2 construct: RXRα (pFA-CMV-h RXRα-LBD[105], 1 μM Bexarotene); expressed in transfected cells; host or cells: HEK293T
T2 sequence (P19793 227-458 limits assumed): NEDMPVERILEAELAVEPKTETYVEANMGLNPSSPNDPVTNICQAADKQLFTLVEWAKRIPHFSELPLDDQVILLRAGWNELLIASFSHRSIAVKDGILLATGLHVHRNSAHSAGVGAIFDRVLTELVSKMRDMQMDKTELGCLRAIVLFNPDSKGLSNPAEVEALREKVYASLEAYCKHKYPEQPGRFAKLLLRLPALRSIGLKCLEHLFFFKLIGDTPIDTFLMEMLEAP
Description: as §1, §2

[2] = tested on: cytochrome P450 isoenzymes (Cyp3A4, Cyp1A2, Cyp2B6, Cyp2C9, Cyp2D6, Cyp2C19, Cyp2C8); assay: CYP inhibition, summary over seven isoenzymes; type: in vitro ADME; details: dose-response experiments up to 20 μM, result in words
Description: SI11Absorption Distribution Metabolism and Excretion and Toxicity Data
To assess the drug-like characteristics of the newly designed PPAR modulators, a series of tests were conducted covering various aspects of absorption, distribution, metabolism, and excretion (ADME) properties. Specifically, these assessments included the parallel artificial membrane permeability assay (PAMPA) with permeation co- […]
efficients ([…]), LogD measurements, microsomal clearance, hepatocyte clearance, P-glycoprotein (Pgp) efflux ratio and binding and the unbound free fraction. Furthermore, the evaluation of inhibition po-tential against cytochrome P450 isoenzymes (CYP) proteins was investigated. For seven selected CYP proteins (i.e., Cyp3A4, Cyp1A2, Cyp2B6, Cyp2C9, Cyp2D6, Cyp2C19, and Cyp2C8) the half maximal inhibitory con-centration (IC50) was determined. (Table S15). […]
activity in the CYP assays was found.
Table S14: Absorption distribution metabolism and excretion (ADME) properties of compounds 1 and 2. […]
The values for microsomal clearance and CYP-inhibition represent single point measurements. […]
Molecule Enzyme Substrate IC50 (µM) […]

5HT3 = 5HT3 (Homo sapiens, UniProt P46098); assay: Safety off-target panel, binding; details: single point
Chain of 5HT3 (P46098 24-478): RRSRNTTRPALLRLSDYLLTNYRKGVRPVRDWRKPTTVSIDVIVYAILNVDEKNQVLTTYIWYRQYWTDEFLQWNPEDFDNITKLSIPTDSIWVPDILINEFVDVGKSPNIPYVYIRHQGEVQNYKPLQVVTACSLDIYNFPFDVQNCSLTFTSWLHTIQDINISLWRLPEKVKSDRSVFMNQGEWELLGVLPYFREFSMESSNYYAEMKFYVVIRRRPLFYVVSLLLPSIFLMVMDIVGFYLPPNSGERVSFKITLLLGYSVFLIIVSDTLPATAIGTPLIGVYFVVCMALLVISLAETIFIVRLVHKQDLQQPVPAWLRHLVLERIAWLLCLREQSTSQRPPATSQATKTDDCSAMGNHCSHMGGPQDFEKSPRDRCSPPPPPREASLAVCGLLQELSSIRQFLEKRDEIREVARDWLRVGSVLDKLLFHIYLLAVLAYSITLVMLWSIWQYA
Source text: (§3) Table S9-S12 list all targets, their species, inhibition (%) and assay type for the experiments conducted in the
(§4) off-targets. […] The numbers for mean
(§5) inhibition (%) represent single point measurements.
(§6) off-targets. […] The numbers for
(§7) mean inhibition (%) represent single point measurements.

ADENOSINE A3 RECEPTOR = ADENOSINE A3 RECEPTOR (Homo sapiens, UniProt P0DMS8); assay: Safety off-target panel, binding; details: single point
Chain of ADENOSINE A3 RECEPTOR (P0DMS8 whole entry): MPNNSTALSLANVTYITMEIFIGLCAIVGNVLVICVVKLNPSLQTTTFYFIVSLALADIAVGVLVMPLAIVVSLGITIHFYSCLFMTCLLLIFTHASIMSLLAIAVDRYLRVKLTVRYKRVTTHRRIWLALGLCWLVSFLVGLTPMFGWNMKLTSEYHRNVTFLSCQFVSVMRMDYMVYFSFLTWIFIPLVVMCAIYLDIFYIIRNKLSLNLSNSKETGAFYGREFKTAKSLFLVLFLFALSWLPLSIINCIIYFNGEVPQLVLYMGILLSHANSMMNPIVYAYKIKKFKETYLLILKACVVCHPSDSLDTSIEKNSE
Source text: as §3, §4, §5, §6, §7

[3] = target: ANGIOTENSIN II RECEPTOR 1 (Homo sapiens, UniProt P30556); assay: Safety off-target panel, binding; details: single point
Chain of ANGIOTENSIN II RECEPTOR 1 (P30556 whole entry): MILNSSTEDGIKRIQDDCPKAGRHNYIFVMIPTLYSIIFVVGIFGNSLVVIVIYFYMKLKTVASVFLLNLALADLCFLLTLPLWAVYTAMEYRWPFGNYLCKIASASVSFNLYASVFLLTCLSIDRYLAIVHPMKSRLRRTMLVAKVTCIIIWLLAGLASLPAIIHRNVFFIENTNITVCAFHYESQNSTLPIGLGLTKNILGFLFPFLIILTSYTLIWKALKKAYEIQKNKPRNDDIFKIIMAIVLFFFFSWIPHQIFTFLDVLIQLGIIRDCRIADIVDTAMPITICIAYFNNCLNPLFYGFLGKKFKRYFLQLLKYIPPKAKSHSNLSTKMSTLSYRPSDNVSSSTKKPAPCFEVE
Source text: as §3, §4, §5, §6, §7

[4] = target: NICOTINIC RECEPTOR, MUSCLE (Homo sapiens, UniProt P02708+P07510+P11230+Q07001); assay: Safety off-target panel, binding; details: single point
Chain of NICOTINIC RECEPTOR, MUSCLE (P02708 whole entry): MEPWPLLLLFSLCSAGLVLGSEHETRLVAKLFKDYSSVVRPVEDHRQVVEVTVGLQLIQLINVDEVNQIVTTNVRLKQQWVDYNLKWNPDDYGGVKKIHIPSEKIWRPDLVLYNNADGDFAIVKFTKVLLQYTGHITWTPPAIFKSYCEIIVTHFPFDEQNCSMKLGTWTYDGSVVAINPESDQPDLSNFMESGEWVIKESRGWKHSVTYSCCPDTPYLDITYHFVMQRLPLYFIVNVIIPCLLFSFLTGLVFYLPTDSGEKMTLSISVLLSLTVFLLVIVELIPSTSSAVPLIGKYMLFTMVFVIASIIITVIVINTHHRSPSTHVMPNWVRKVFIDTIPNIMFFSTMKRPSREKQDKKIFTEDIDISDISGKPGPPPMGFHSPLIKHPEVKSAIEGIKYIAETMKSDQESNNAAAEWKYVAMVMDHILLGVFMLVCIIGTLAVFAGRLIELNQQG
Chain of NICOTINIC RECEPTOR, MUSCLE (P11230 24-501): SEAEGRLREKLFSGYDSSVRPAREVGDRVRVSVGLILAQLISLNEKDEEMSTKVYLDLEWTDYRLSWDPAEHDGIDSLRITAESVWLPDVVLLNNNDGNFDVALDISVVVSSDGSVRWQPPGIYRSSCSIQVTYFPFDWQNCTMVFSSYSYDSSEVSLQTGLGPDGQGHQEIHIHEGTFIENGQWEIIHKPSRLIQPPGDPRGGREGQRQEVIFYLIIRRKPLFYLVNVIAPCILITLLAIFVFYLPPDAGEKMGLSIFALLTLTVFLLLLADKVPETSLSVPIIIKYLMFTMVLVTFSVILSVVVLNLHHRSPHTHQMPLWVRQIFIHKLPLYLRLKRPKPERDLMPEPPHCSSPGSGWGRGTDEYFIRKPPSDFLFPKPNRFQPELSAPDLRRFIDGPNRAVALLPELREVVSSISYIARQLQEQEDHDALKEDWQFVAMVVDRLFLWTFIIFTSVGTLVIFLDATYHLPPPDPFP
Chain of NICOTINIC RECEPTOR, MUSCLE (Q07001 22-517): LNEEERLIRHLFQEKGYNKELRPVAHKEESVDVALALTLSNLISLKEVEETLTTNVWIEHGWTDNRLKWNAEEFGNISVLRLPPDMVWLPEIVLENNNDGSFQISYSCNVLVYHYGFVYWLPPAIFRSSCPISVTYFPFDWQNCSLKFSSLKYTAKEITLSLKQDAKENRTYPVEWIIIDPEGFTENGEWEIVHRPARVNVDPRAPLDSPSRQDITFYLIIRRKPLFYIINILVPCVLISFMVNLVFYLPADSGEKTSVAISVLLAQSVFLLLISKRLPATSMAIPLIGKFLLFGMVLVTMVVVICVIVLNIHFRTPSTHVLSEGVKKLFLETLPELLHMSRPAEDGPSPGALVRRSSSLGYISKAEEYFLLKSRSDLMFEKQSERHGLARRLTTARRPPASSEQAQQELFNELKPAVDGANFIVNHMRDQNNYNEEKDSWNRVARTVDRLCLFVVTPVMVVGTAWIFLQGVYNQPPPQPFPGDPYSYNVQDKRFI
Chain of NICOTINIC RECEPTOR, MUSCLE (P07510 23-517): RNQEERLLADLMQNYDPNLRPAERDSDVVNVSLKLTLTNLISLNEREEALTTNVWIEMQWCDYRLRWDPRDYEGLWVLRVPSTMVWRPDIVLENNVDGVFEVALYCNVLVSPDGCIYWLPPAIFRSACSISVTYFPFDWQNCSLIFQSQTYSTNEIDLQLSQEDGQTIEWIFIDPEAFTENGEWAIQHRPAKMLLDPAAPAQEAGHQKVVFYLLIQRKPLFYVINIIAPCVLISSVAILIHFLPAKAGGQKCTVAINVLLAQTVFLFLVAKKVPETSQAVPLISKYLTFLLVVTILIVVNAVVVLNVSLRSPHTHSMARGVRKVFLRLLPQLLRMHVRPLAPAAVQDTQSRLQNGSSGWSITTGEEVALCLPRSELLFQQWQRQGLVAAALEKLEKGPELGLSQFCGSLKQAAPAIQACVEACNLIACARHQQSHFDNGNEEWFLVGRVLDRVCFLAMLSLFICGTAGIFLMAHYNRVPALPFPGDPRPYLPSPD
Source text: as §3, §4, §5, §6, §7

PROSTAGLANDIN F RECEPTOR = PROSTAGLANDIN F RECEPTOR (Homo sapiens, UniProt P43088); assay: Safety off-target panel, binding; details: single point
Chain of UniProt P43088 (P43088 whole entry): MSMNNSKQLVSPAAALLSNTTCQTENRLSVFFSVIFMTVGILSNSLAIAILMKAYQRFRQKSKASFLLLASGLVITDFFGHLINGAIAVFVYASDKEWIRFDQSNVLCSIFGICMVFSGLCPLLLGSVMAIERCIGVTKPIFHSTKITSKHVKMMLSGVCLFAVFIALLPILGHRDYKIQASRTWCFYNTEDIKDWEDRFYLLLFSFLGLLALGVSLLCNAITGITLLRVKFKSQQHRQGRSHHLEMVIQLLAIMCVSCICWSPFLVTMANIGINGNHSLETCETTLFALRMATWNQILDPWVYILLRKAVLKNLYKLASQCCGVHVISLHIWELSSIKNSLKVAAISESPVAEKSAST
Source text: as §3, §4, §5, §6, §7

How did the EC50 (human PPARγ) turn out when `Cc1nnc(-c2ccc(OCCCOc3ccc(CCC(=O)O)c(F)c3)c(F)c2)s1` [Compound 1] was run?
Its EC50 is 1480 nM.

And the “RXRα reporter activation, replicate values (DMSO ctrl = 1,000)” value (from here on “RXRα reporter activation”) ([1]; 3 µM)?
Its value is 1,140 and 1,672 and 0,965.

And the “RXRα reporter activation” value ([1]; 10 µM)?
The value was 0,945 and 2,262 and 0,954.

And the “interaction with the seven pivotal cytochrome P450 isoenzymes” value [2]?
The value was “did not echibit any relevant; also recorded: did not exhibit any relevant activity”.

And the inhibition at 10 µM (5HT3)?
The inhibition at 10 µM was -4.7%.

What about the inhibition at 10 µM (ADENOSINE A3 RECEPTOR) of the same compound?
The inhibition at 10 µM was 9%.

And the inhibition at 10 µM [3]?
The inhibition at 10 µM was -7.5%.

And the inhibition at 10 µM [4]?
Its inhibition at 10 µM is -3.7%.

And the inhibition at 10 µM (PROSTAGLANDIN F RECEPTOR)?
The inhibition at 10 µM was 0%.

`COc1ccc(Oc2ccc3ncn(CCOc4ccc(CCC(=O)O)cc4)c3c2)cc1` [Compound 2] was tested. Which EC50 (human PPARγ) did it give?
Its EC50 is 2290 nM.

And the “RXRα reporter activation” value ([1]; 3 µM)?
The value was 1,173 and 1,058 and 1,366.

And the “RXRα reporter activation” value ([1]; 10 µM)?
Its value is 1,398 and 1,193 and 1,167.

And the “interaction with the seven pivotal cytochrome P450 isoenzymes” value [2]?
The value was “did not echibit any relevant; also recorded: did not exhibit any relevant activity”.

And the inhibition at 10 µM (5HT3)?
The inhibition at 10 µM was 0.3%.

What about the inhibition at 10 µM (ADENOSINE A3 RECEPTOR) of the same compound?
The inhibition at 10 µM was 17.1%.

And the inhibition at 10 µM [3]?
The inhibition at 10 µM was -6.2%.

What about the inhibition at 10 µM [4] of the same compound?
Its inhibition at 10 µM is 0.9%.

What about the inhibition at 10 µM (PROSTAGLANDIN F RECEPTOR) of the same compound?
Its inhibition at 10 µM is 4.6%.
